Test results as given in patent publication US20210017607A1, “Methods of Predicting Responsiveness to Cancer Therapies” (The University of Chicago, priority 2019, published 2021).

Legend:
[1] = test system: PTEN/p53-deficient GEMM tumors; assay: PTEN/p53-deficient GEMM in vivo immune profiling; set-up: species or system mouse; settings: for CD4 and CD8 T-cell infiltration / Gr-MDSC and Tregs: copanlisib 14 mg/kg/day every alternate day, 4 weeks
Description: FIGS. 48A and 48B. […] PTEN/p53-deficient GEMM mice with established tumors were treated with DMXAA every other day for 14 days. Tumors were harvested and subjected to flow cytometry for detection of the indicated markers. (48A) CD8 infiltration; (48B) M1/M2 ratio of F4/80^+ cells where M1 are defined as MHC-II^+ and M2 cells are MHC-II^−. The frequency of Gr-MDSCs (Ly6C^−Ly6G^+) and surface expression of V-domain Ig suppressor of T cell activation (VISTA) and PD-L1 on Gr-MDSCs are shown.
FIGS. 71A and 71B. […] PTEN/p53-deficient GEMM mice (n=2/group) with established tumors were treated with copanlisib (14 mg/kg/day, every alternate day) for 4 weeks. Tumors were collected and analyzed for changes in global immune infiltrates, shown clockwise from twelve o'clock: CD4+, CD8+, CD19+, F4/80+, CD11c+, Mo-MDSC, Gr-MDSC, neutrophils (71A) and Treg frequency (71B) by flow cytometry. n=2 mice per arm.
Flow Cytometry. Murine tumors: Murine tumors were processed into single cell suspensions via gentle mechanical dissociation in 6 well plates containing 1 mL of 10% RPMI media supplemented with 10% fetal bovine serum, 1% penicillin-streptomycin and 2% L-glutamine. Cell suspensions were centrifuged at 500×g for 5 minutes at 4° C. and were passed through a 70-micron mesh, prior to re-suspension in FACS buffer (1×PBS containing 0.5% FBS and 0.01% sodium azide). For the stain, one million cells resuspended in 1×FACS buffer, were incubated with titrated concentrations of anti-mouse antibodies (Biolegend®), namely, CD45, CD11b, CD11c, CD19, F480,Ly6G, Ly6C, PD-L1, VISTA, I-A^e/IA^b, H-2K^b, CD3, CD4, CD8, 4-1BB, ICOS, and PD-1. Incubation with antibodies was done at 4° C. for 30-40 minutes. Following staining, cells were washed twice with 1× FACS buffer and fixed with 300 microliters of 4% paraformaldehye (Fisher Scientific®). Intracellular stains were done following fixation and permeabilization by staining with anti-mouse FOXP3 (Biolegend®) as per manufacturer's protocol. Analysis of cellular stains were done using BD instrument LSR 4-15 Fortessa™. Data files collected using BDFACSDIVA software were analyzed using FlowJo® software (Tree Star).

[2] = test system: Myc-CAP (STING^lo) tumors; assay: Myc-CAP syngeneic tumor growth; format: in vivo, mouse; settings: immunocompetent syngeneic mice
Description: FIGS. 25A and 25B. […] (25A-25B) Myc-CAP (STING^lo) tumor-bearing syngeneic mice were treated with the indicated drug(s) until untreated tumors reached approx. 2500 mm^3. Tumor volume curves for duration of treatment are shown.
FIGS. 26A-26D. […] Immunodeficient athymic nude (26A) and NOD-SCID (26B) mice were engrafted with Myc-CAP (STING^lo) tumors and treated with the indicated drug(s) until untreated tumors reached approx. 2000 mm^3. Tumor volume curves for duration of treatment are shown. For 26A-26B, n=3-4 mice per group. (26C-26D) Single-cell suspensions were generated from harvested tumors and analyzed by flow cytometry for the indicated immune cell populations and their activation states. Data are represented relative to CD45+ immune cells. For 26C-26D, n=3-5 animals per treatment group from 2 independent experiments. Significance/p-values were calculated by […].
FIGS. 29A-29M. […] Myc-CAP cancer cells were treated with the indicated drugs singly or in combination for 36 hours. (29A) Cells were stained with anti-mouse specific p-γH2AX antibody and a fluorescently labeled secondary antibody for determination of DNA DSBs, which were quantified by confocal microscopy. (29B) Protein extracts from cells in 29A were analyzed for the indicated pharmacodynamic biomarkers by western blotting; (29C) Annexin V-PI staining was done to assess frequency of live cells (Annexin V^− PI^−) following drug treatment. (29D) Ultracentrifugation was utilized to purify microvesicles (MVs) from supernatants in treatment groups in (29A) and associated DNA DSBs was quantified by Nanodrop®. Independent experiments n=2. (29E) Ultracentrifugation was utilized to purify MVs from supernatants in indicated treatment groups in FIG. 17A, and associated DNA DSBs were quantified by Nanodrop®; n=2 independent experiments. (29F) Syngeneic mice were engrafted with Myc-CAP (STING^lo) cells, and tumors were harvested when the tumor volume reached 400 mm^3. Single cell suspensions of the tumors were treated with the indicated drug(s), in the presence or absence of GW4869 (MV biogenesis inhibitor). (29G) Bone marrow derived macrophage (BMDMs) were co-cultured for 30 hours with supernatants (−/+ exogenous 50 units of DNase I pre-treatment for 30 minutes) from Myc-CAP cells that were treated with the indicated drug(s) for 36 hours. (29H) cGAMP (10 μg/mL) was pre-incubated with 10 units of DNAse I or mock control for 30 minutes and then added to BMDMs for 30 hours. (29I-29L) STING^+/+/STING^−/− BMDMs were co-cultured for 36 hours with supernatants from Myc-CAP and B6-Myc cancer cells that were treated with the indicated drug(s) for 36 hours. Supernatants were collected from 29F-29L at the end of treatment and analyzed for IFNβ1 by ELISA. (29M) Myc-CAP (STING^lo) tumor-bearing mice were treated with the indicated drug(s) until tumors first reached approx. 2500 mm^3. For the degerelix/rucaparib/buparlisib combination, additional cohorts of mice underwent concomitant treatment with STING antagonist H-151 or GW4869. Tumor volume was recorded daily for duration of experiment. For in vitro experiments, n=2 independent experiments and for in vivo experiments n=3-4 animals /group.

[3] = DMXAA every other day for 14 days

SMILES: Cc1ccc2c(=O)c3cccc(CC(=O)O)c3oc2c1C [DMXAA, 5,6-Dimethylxanthenone-4-acetic Acid]
- CD8 T cell infiltration [1, 3]: increases CD8 T cell infiltration
- myeloid immunosuppression [1, 3]: relieves myeloid immunosuppression
- MDSC infiltration ([1]; DMXAA, PTEN/p53 GEMM mice): decreased MDSC infiltration
- VISTA and PD-L1 checkpoint expression on MDSCs ([1]; DMXAA, PTEN/p53 GEMM mice): reduction
- myeloid reprogramming and Type I interferon production within the TME ([1]; Myc-CAP-PTEN knockout and PTEN/p53-deficient GEMM tumors): myeloid reprogramming and Type I interferon production
- TIL exhaustion markers ([1]; after DMXAA): decreased 4-1BB, decreased ICOS and increased PD-1

SMILES: Nc1cc(C(F)(F)F)c(-c2cc(N3CCOCC3)nc(N3CCOCC3)n2)cn1 [buparlisib]
- tumor growth response [2]: not observed

SMILES: COc1c(OCCCN2CCOCC2)ccc2c1N=C(NC(=O)c1cnc(N)nc1)N1CCN=C21 [copanlisib]
- CD4 and CD8 T-cell infiltration [1]: striking increase
- Gr-MDSC and Tregs [1]: depletion
- CD4 and CD8 T-cell infiltration ([1]; listed as Copanlisib): increases CD4 and CD8 T-cell infiltration
- Gr-MDSC and Tregs ([1]; listed as Copanlisib): decreases Gr-MDSC and Tregs

SMILES: CNCc1ccc(-c2[nH]c3cc(F)cc4c3c2CCNC4=O)cc1 [rucaparib]
- tumor growth response [2]: not observed
